Legend:
[1] = In vitro cytotoxicity, MTT cell viability assay in HepG2 cells; format: cell-based; settings: human, Cytotoxicity CC50
Summary of the method: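 HepG2 cells incubated 7 days at 37 °C, 5% CO2 with compounds from 30 μM to 1.0 nM (8 half-log dilutions). Viability read as MTT formazan absorbance at 492 nm, normalised to vehicle controls; CC50 from 4-parameter non-linear regression.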

[2] = tested on: HBV replication in HepAD38 cells; experiment: Anti-HBV activity in HepAD38 cells, extracellular HBV DNA by QPCR; format: cell-based, HBV (genotype D, serotype ayw); settings: Hepatitis B virus, HePAD38, 168 h, read-out: Anti-HBV EC50, HepAD38 cells, extracellular HBV DNA by QPCR, 7 days of incubation
Summary of the method: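 Seven-day compound exposure (30 μM down to 10 nM, half-log steps) after tetracycline withdrawal induced HBV replication in HepAD38 cells. Extracellular viral DNA measured by QPCR (copies/mL via standard curve), normalised to DMSO wells; EC50 from 4-parameter non-linear regression.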

Structure (SMILES)	CC50 at 7 days [1] [µM]	EC50 [2] [µM]
Cc1cc(NC(=O)c2ccc(F)c(C(F)(F)C(=O)N3[C@@H]4CCC[C@H]3CC(O)C4)c2)ccc1F (stereo partly drawn) [Example 202, 3-(1,1-difluoro-2-((1R,5S)-3-hydroxy-9-azabicyclo[3.3.1]nonan-9-yl)-2-oxoethyl)-4-fluoro-N-(4-fluoro-3-methylphenyl)benzamide]	5 to 30	< 5
Cc1cc(NC(=O)c2ccc(F)c(C(F)(F)C(=O)N3[C@@H]4COC[C@H]3CC(O)C4)c2)ccc1F (stereo partly drawn) [Example 203, 3-(1,1-difluoro-2-((1R,5S)-7-hydroxy-3-oxa-9-azabicyclo[3.3.1]nonan-9-yl)-2-oxoethyl)-4-fluoro-N-(4-fluoro-3-methylphenyl)benzamide]	5 to 30	< 5
Cc1cc(NC(=O)c2ccc(F)c(C(F)(F)C(=O)N3CCc4[nH]ncc4C3)c2)ccc1F [Example 204, 3-(1,1-difluoro-2-oxo-2-(1,4,6,7-tetrahydro-5H-pyrazolo[4,3-c]pyridin-5-yl)ethyl)-4-fluoro-N-(4-fluoro-3-methylphenyl)benzamide]	5 to 30	< 5
Cc1ccc(C(=O)Nc2cc(F)c(F)c(F)c2)cc1C(F)(F)C(=O)N1[C@@H]2CC[C@H]1C[C@H](O)C2 [Example 205, 3-(1,1-difluoro-2-((1R,3s,5S)-3-hydroxy-8-azabicyclo[3.2.1]octan-8-yl)-2-oxoethyl)-4-methyl-N-(3,4,5-trifluorophenyl)benzamide]	5 to 30	5 to 30
Cc1ccc(C(=O)Nc2ccc(F)c(Cl)c2)cc1C(F)(F)C(=O)N1[C@@H]2CC[C@H]1C[C@H](O)C2 [Example 206, N-(3-chloro-4-fluorophenyl)-3-(1,1-difluoro-2-((1R,3s,5S)-3-hydroxy-8-azabicyclo[3.2.1]octan-8-yl)-2-oxoethyl)-4-methylbenzamide]	5 to 30	< 5
Cc1cc(NC(=O)c2cccc(C(F)(F)C(=O)N3[C@@H]4CC[C@H]3C[C@H](O)C4)c2F)ccc1F [Example 207, 3-(1,1-difluoro-2-((1R,3s,5S)-3-hydroxy-8-azabicyclo[3.2.1]octan-8-yl)-2-oxoethyl)-2-fluoro-N-(4-fluoro-3-methylphenyl)benzamide]	5 to 30	< 5
Cc1cc(NC(=O)c2ccc(F)c(C(F)(F)C(=O)N3[C@@H]4CNC[C@H]3COC4)c2)ccc1F [Example 208, 3-(2-((1R,5S)-3-oxa-7,9-diazabicyclo[3.3.1]nonan-9-yl)-1,1-difluoro-2-oxoethyl)-4-fluoro-N-(4-fluoro-3-methylphenyl)benzamide]	5 to 30	< 5
Cc1cc(NC(=O)c2ccc(F)c(C(F)(F)C(=O)N3[C@@H]4COC[C@H]3CN(C(=O)OC(C)(C)C)C4)c2)ccc1F [Example 209, tert-butyl (1R,5S)-9-(2,2-difluoro-2-(2-fluoro-5-((4-fluoro-3-methylphenyl)carbamoyl)phenyl)acetyl)-3-oxa-7,9-diazabicyclo[3.3.1]nonane-7-carboxylate]	5 to 30	< 5
Cc1cc(NC(=O)c2ccc(F)c(C(F)(F)C(=O)N3[C@@H]4COC[C@H]3CN(C(=O)N3CCS(=O)(=O)CC3)C4)c2)ccc1F [Example 210, 3-(2-((1R,5S)-7-(1,1-dioxidothiomorpholine-4-carbonyl)-3-oxa-7,9-diazabicyclo[3.3.1]nonan-9-yl)-1,1-difluoro-2-oxoethyl)-4-fluoro-N-(4-fluoro-3-methylphenyl)benzamide]	> 30	< 5
Cc1cc(NC(=O)c2ccc(F)c(C(F)(F)C(=O)N3[C@@H]4COC[C@H]3CN(S(C)(=O)=O)C4)c2)ccc1F [Example 211, 3-(1,1-difluoro-2-((1R,5S)-7-(methylsulfonyl)-3-oxa-7,9-diazabicyclo[3.3.1]nonan-9-yl)-2-oxoethyl)-4-fluoro-N-(4-fluoro-3-methylphenyl)benzamide]	> 30	< 5

Source: patent US11247965B2 (VenatoRx Pharmaceuticals, Inc., priority 2017, dated 2022)
